Assay results as given in US8426420B2, “Heterocyclic pyrazole-carboxamidesas P2Y12 antagonists” (Sanofi, priority 2007, dated 2013).

Columns and labels:
[1] = system: human platelet rich plasma; experiment: Inhibition of human platelet aggregation, 96-well assay; assay type: cell-based; conditions: Homo sapiens, Platelet, 20 min
Summary of the method: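 ADP-induced aggregation read as 650 nm absorbance every minute for 20 min at 37 °C, with shaking between reads. PRP (~3×E8 platelets/ml, diluted with PPP, ACD-A blood from healthy volunteers) was exposed to compound for 5 min before adding a 40 μM ADP stock (15 μl into 150 μl).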

[2] = system: human platelet rich plasma; experiment: Inhibition of human platelet aggregation, "Born"-method using single cuvettes; assay type: cell-based; conditions: 0.1 h, ADP-induced aggregation, 6 minutes
human P2Y12 receptor = human P2Y12 receptor (Homo sapiens, UniProt Q9H244); experiment: Human P2Y12 recombinant cell membrane binding assay with 33P 2MeS-ADP; conditions: competition against 33P 2MeS-ADP, membranes of CHO cells with recombinant human P2Y12 receptor
Summary of the method: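 Competition binding against radiolabeled 2MeS-ADP (1.61 nM as added) on membranes from recombinant human P2Y12 CHO cells, 20 min RT after 15 min compound preincubation, pH 7.4. Filtration then scintillation counting; compounds tested in triplicate from 10 μM final, five-fold dilutions, curve fit with plate-defined min/max.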

Chain of human P2Y12 receptor (Q9H244 whole entry): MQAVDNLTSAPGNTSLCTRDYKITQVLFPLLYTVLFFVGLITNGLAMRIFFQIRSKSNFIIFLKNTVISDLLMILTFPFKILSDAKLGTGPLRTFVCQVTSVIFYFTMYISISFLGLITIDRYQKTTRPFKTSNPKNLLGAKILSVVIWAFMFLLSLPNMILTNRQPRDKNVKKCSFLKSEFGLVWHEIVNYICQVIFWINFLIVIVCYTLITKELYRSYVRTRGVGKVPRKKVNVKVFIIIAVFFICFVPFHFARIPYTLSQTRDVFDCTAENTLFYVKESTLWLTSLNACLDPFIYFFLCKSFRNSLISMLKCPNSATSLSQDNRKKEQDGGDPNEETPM

Row | SMILES | IC50 [1] [nM] | IC50 [2] [nM] | IC50 (human P2Y12 receptor) [nM]
1 | CCCCOC(=O)N1CCN(C(=O)[C@@H](NC(=O)c2cc(OCC(=O)N3CCC[C@H]3C(=O)NC3CCC3)n(-c3ccccc3)n2)C2CC2)CC1 [Example 230, 4-[(S)-2-({5-[2-((S)-2-Cyclobutylcarbamoyl-pyrrolidin-1-yl)-2-oxo-ethoxy]-1-phenyl-1H-pyrazole-3-carbonyl}-amino)-2-cyclopropyl-acetyl]-piperazine-1-carboxylic acid butyl ester] | 210 | 80 | 14
2 | CCOC(=O)N1CCN(C(=O)[C@H](CCC(=O)O)NC(=O)c2cc(OCC(=O)N3CCC[C@H]3C(=O)NC3CC3)n(-c3ccccc3)n2)CC1 [Example 1, 4-[(S)-4-Carboxy-2-({5-[2-((S)-2-cyclopropylcarbamoyl-pyrrolidin-1-yl)-2-oxo-ethoxy]-1-phenyl-1H-pyrazole-3-carbonyl}-amino)-butyryl]-piperazine-1-carboxylic acid ethyl ester] | 10 | 210 | 270
3 | CCCCOC(=O)N1CCN(C(=O)[C@H](CC)NC(=O)c2cc(OCC(=O)N3CCC[C@H]3C(=O)NC3CCC3)n(-c3ccccc3)n2)CC1 [Example 233, 4-[(S)-2-({5-[2-((S)-2-Cyclobutylcarbamoyl-pyrrolidin-1-yl)-2-oxo-ethoxy]-1-phenyl-1H-pyrazole-3-carbonyl}-amino)-butyryl]-piperazine-1-carboxylic acid butyl ester] | 200 | 60 | 21
4 | CCCCOC(=O)N1CCN(C(=O)CNC(=O)c2cc(OCC(=O)N3CCC[C@H]3C(=O)NC3CCC3)n(-c3ccccc3)n2)CC1 [Example 182, 4-[2-({5-[2-((S)-2-Cyclobutylcarbamoyl-pyrrolidin-1-yl)-2-oxo-ethoxy]-1-phenyl-1H-pyrazole-3-carbonyl}-amino)-acetyl]-piperazine-1-carboxylic acid butyl ester] | 30 | 46 | 20
5 | CCOC(=O)N1CCN(C(=O)[C@H](CCC(=O)O)NC(=O)c2cc(O[C@H](C)C(=O)N3CCC[C@H]3C(=O)NC3CCC3)n(-c3ccccc3)n2)CC1 [Example 62, 4-[(S)-4-Carboxy-2-({5-[(R)-2-((S)-2-cyclobutylcarbamoyl-pyrrolidin-1-yl)-1-methyl-2-oxo-ethoxy]-1-phenyl-1H-pyrazole-3-carbonyl}-amino)-butyryl]-piperazine-1-carboxylic acid ethyl ester] | 130 | 58 | 17
6 | CCCCOC(=O)N1CCN(C(=O)[C@@H](C)NC(=O)c2cc(OCC(=O)N3CCC[C@H]3C(=O)NC3CCC3)n(-c3ccccc3)n2)CC1 [Example 184, 4-[(R)-2-({5-[2-((S)-2-Cyclobutylcarbamoyl-pyrrolidin-1-yl)-2-oxo-ethoxy]-1-phenyl-1H-pyrazole-3-carbonyl}-amino)-propionyl]-piperazine-1-carboxylic acid butyl ester] | 280 | 80 | 18
7 | CCCOC(=O)N1CCN(C(=O)CNC(=O)c2cc(OCC(=O)N3CCC[C@H]3C(=O)NC3CCC3)n(-c3ccccc3)n2)CC1 [Example 210, 4-[2-({5-[2-((S)-2-Cyclobutylcarbamoyl-pyrrolidin-1-yl)-2-oxo-ethoxy]-1-phenyl-1H-pyrazole-3-carbonyl}-amino)-acetyl]-piperazine-1-carboxylic acid propyl ester] | 120 | 30 | 72
8 | CCOC(=O)N1CCN(C(=O)[C@H](CCC(=O)O)NC(=O)c2cc(OCC(=O)N3CCC[C@H]3C(=O)NCC(F)F)n(-c3ccccc3)n2)CC1 [Example 15, 4-{(S)-4-Carboxy-2-[(5-{2-[(S)-2-(2,2-difluoro-ethylcarbamoyl)-pyrrolidin-1-yl]-2-oxo-ethoxy}-1-phenyl-1H-pyrazole-3-carbonyl)-amino]-butyryl}-piperazine-1-carboxylic acid ethyl ester] | 130 | 120 | 164
9 | CCCCOC(=O)N1CCN(C(=O)[C@H](CCC(=O)O)NC(=O)c2cc(OCC(=O)N3CCC[C@H]3C(=O)NCCF)n(-c3ccccc3)n2)CC1 [Example 122, 4-{(S)-4-Carboxy-2-[(5-{2-[(S)-2-(2-fluoro-ethylcarbamoyl)-pyrrolidin-1-yl]-2-oxo-ethoxy}-1-phenyl-1H-pyrazole-3-carbonyl)-amino]-butyryl}-piperazine-1-carboxylic acid butyl ester] | 40 | 81 | 12
10 | CCOC(=O)N1CCN(C(=O)[C@H](CCC(=O)O)NC(=O)c2cc(OCC(=O)N3CCC[C@H]3C(=O)NC(C)(C)C)n(-c3ccccc3)n2)CC1 [Example 12, 4-{(S)-4-Carboxy-2-[(5-{2-[(S)-2-tert-butylcarbamoyl-pyrrolidin-1-yl]-2-oxo-ethoxy}-1-phenyl-1H-pyrazole-3-carbonyl)-amino]-butyryl}-piperazine-1-carboxylic acid ethyl ester] | 20 | 70 | 107
11 | O=C(O)CC[C@H](NC(=O)c1cc(OCC(=O)N2CCC[C@H]2C(=O)NC2CCC2)n(-c2ccccc2)n1)C(=O)N1CCC(C(=O)c2cccc(Cl)c2)CC1 [Example 103, (S)-5-[4-(3-Chloro-benzoyl)-piperidin-1-yl]-4-({5-[2-((S)-2-cyclobutylcarbamoyl-pyrrolidin-1-yl)-2-oxo-ethoxy]-1-phenyl-1H-pyrazole-3-carbonyl}-amino)-5-oxo-pentanoic acid] | 560 | 120 | 127
